Laboratory results as given in patent US11149018B2, “Substituted N-arylethyl-2-aminoquinoline-4-carboxamides and use thereof” (Bayer Aktiengesellschaft, priority 2017, dated 2021).

These molecules were tested against FP receptor (Homo sapiens (Human), UniProt P43088) (assay: In vitro test of inhibition of human FP receptor activity (PGF2α-induced calcium flux in FP-expressing CHEM1 cells)). Settings: PGF2α 2 nM, some mean values of multiple determinations.
Format: cell-based
Method in brief: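 FP antagonism in FP-expressing CHEM1 cells loaded with Fluo-8. Compound preincubated 10 min at 37° C, then receptor stimulated with 2 nM (final) PGF2α in calcium-free Tyrode with 2 mM CaCl2.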

Chain of FP receptor (P43088 whole entry): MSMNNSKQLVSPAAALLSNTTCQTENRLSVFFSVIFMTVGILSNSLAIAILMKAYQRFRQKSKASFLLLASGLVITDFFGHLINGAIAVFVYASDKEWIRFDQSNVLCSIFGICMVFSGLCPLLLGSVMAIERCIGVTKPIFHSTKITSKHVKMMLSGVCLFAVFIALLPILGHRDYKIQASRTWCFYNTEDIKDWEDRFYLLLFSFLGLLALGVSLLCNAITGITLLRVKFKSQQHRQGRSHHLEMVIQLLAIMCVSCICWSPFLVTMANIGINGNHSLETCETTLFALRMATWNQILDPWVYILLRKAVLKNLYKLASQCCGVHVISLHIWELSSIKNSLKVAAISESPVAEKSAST

| IC50 | SMILES |
| --- | --- |
| 21 nM | Cc1c(N2CCCC(C)C2)nc2ccc(Br)cc2c1C(=O)NCC(CCC(=O)O)c1ccccc1C(F)(F)F (single isomer, unassigned; (+)) [Example 197, (+)-5-[({6-Bromo-3-methyl-2-[3-methylpiperidin-1-yl]quinolin-4-yl}carbonyl)amino]-4-[2-(trifluoromethyl)phenyl]pentanoic acid] |
| 3.7 nM | Cc1c(N2CCCC(C)C2)nc2ccc(Br)cc2c1C(=O)NCC(CCC(=O)O)c1ccccc1C(F)(F)F (single isomer, unassigned; (+)) [Example 198, (+)-5-[({6-Bromo-3-methyl-2-[3-methylpiperidin-1-yl]quinolin-4-yl}carbonyl)amino]-4-[2-(trifluoromethyl)phenyl]pentanoic acid] |
| 11 nM | Cc1c(N2CCCC(F)C2)nc2ccc(Br)cc2c1C(=O)NCC(CCC(=O)O)c1ccccc1OC(F)(F)F (single isomer, unassigned; (+)) [Example 203, (+)-5-[({6-Bromo-2-[3-fluoropiperidin-1-yl]-3-methylquinolin-4-yl}carbonyl)amino]-4-[2-(trifluoromethoxy)phenyl]pentanoic acid] |
| 2.6 nM | Cc1c(N2CCCC(F)C2)nc2ccc(Br)cc2c1C(=O)NCC(CCC(=O)O)c1ccccc1OC(F)(F)F (single isomer, unassigned; (+)) [Example 204, (+)-5-[({6-Bromo-2-[3-fluoropiperidin-1-yl]-3-methylquinolin-4-yl}carbonyl)amino]-4-[2-(trifluoromethoxy)phenyl]pentanoic acid] |
| 0.41 nM | CCC1CCCN(c2nc3ccc(Br)cc3c(C(=O)NCC(CCC(=O)O)c3ccccc3OC(F)(F)F)c2C)C1 (single isomer, unassigned; (+)) [Example 205, (+)-5-[({6-Bromo-2-[3-ethylpiperidin-1-yl]-3-methylquinolin-4-yl}carbonyl)amino]-4-[2-(trifluoromethoxy)phenyl]pentanoic acid] |
| 1.4 nM | CCC1CCCN(c2nc3ccc(Br)cc3c(C(=O)NCC(CCC(=O)O)c3ccccc3OC(F)(F)F)c2C)C1 (single isomer, unassigned; (+)) [Example 208, (+)-5-[({6-Bromo-2-[3-ethylpiperidin-1-yl]-3-methylquinolin-4-yl}carbonyl)amino]-4-[2-(trifluoromethoxy)phenyl]pentanoic acid] |
| 17 nM | Cc1c(N2CCCC(C)C2)nc2ccc(Br)cc2c1C(=O)NCC(CCC(=O)O)c1ccccc1OC(F)(F)F (single isomer, unassigned; (+)) [Example 211, (+)-5-[({6-Bromo-3-methyl-2-[3-methylpiperidin-1-yl]quinolin-4-yl}carbonyl)amino]-4-[2-(trifluoromethoxy)phenyl]pentanoic acid] |
| 1.9 nM | Cc1c(N2CCCC(C)C2)nc2ccc(Br)cc2c1C(=O)NCC(CCC(=O)O)c1ccccc1OC(F)(F)F (single isomer, unassigned; (+)) [Example 212, (+)-5-[({6-Bromo-3-methyl-2-[3-methylpiperidin-1-yl]quinolin-4-yl}carbonyl)amino]-4-[2-(trifluoromethoxy)phenyl]pentanoic acid] |
| 21 nM | Cc1ccc(F)cc1C(CCC(=O)O)CNC(=O)c1c(C)c(N2CCCC(F)(F)C2)nc2ccc(Br)cc12 (single isomer, unassigned; (+)) [Example 214, (+)-5-({[6-Bromo-2-(3,3-difluoropiperidin-1-yl)-3-methylquinolin-4-yl]carbonyl}amino)-4-(5-fluoro-2-methylphenyl)pentanoic acid] |
| 3.9 nM | Cc1c(N2CCCC2)nc2ccc(Br)cc2c1C(=O)NCC(CCC(=O)O)c1c(F)ccc(F)c1Cl (single isomer, unassigned; (+)) [Example 215, (+)-5-({[6-Bromo-3-methyl-2-(pyrrolidin-1-yl)quinolin-4-yl]carbonyl}amino)-4-(2-chloro-3,6-difluorophenyl)pentanoic acid] |
| 50 nM | Cc1c(N2CCCC(F)(F)C2)nc2ccc(Br)cc2c1C(=O)NCC(CCC(=O)O)c1c(F)ccc(F)c1Cl (single isomer, unassigned; (+)) [Example 217, (+)-5-({[6-Bromo-2-(3,3-difluoropiperidin-1-yl)-3-methylquinolin-4-yl]carbonyl}amino)-4-(2-chloro-3,6-difluorophenyl)pentanoic acid] |
| 29 nM | Cc1c(N2CCCCCC2)nc2ccc(Br)cc2c1C(=O)NCC(CCC(=O)O)c1c(F)ccc(F)c1Cl (single isomer, unassigned; (+)) [Example 219, (+)-5-({[2-(Azepan-1-yl)-6-bromo-3-methylquinolin-4-yl]carbonyl}amino)-4-(2-chloro-3,6-difluorophenyl)pentanoic acid] |
| 57 nM | CCC1CCCN(c2nc3ccc(Br)cc3c(C(=O)NCC(CCC(=O)O)c3cc(F)ccc3F)c2C)C1 (single isomer, unassigned; (+)) [Example 227, (+)-5-[({6-Bromo-2-[3-ethylpiperidin-1-yl]-3-methylquinolin-4-yl}carbonyl)amino]-4-(2,5-difluorophenyl)pentanoic acid] |
| 1.1 nM | CCC1CCCN(c2nc3ccc(Br)cc3c(C(=O)NCC(CCC(=O)O)c3cc(F)ccc3F)c2C)C1 (single isomer, unassigned; (+)) [Example 228, (+)-5-[({6-Bromo-2-[3-ethylpiperidin-1-yl]-3-methylquinolin-4-yl}carbonyl)amino]-4-(2,5-difluorophenyl)pentanoic acid] |
| 39 nM | Cc1ccccc1C(CCC(=O)O)CNC(=O)c1c(C)c(N2CCCC(F)(F)C2)nc2ccc(Br)cc12 (single isomer, unassigned; (+)) [Example 231, (+)-5-({[6-Bromo-2-(3,3-difluoropiperidin-1-yl)-3-methylquinolin-4-yl]carbonyl}amino)-4-(2-methylphenyl)pentanoic acid] |
| 84 nM | Cc1ccccc1C(CCC(=O)O)CNC(=O)c1c(C)c(N2CCCC2)nc2ccc(Br)cc12 (single isomer, unassigned; (+)) [Example 233, (+)-5-({[6-Bromo-3-methyl-2-(pyrrolidin-1-yl)quinolin-4-yl]carbonyl}amino)-4-(2-methylphenyl)pentanoic acid] |
| 1.4 nM | COc1ccccc1C(CCC(=O)O)CNC(=O)c1c(C)c(N2CCCCC2)nc2ccc(Br)cc12 (single isomer, unassigned; (+)) [Example 235, (+)-5-({[6-Bromo-3-methyl-2-(piperidin-1-yl)quinolin-4-yl]carbonyl}amino)-4-(2-methoxyphenyl)pentanoic acid] |
| 4.3 nM | COc1ccccc1C(CCC(=O)O)CNC(=O)c1c(C)c(N2CCCC2)nc2ccc(Br)cc12 (single isomer, unassigned; (+)) [Example 237, (+)-5-({[6-Bromo-3-methyl-2-(pyrrolidin-1-yl)quinolin-4-yl]carbonyl}amino)-4-(2-methoxyphenyl)pentanoic acid] |
| 1.4 nM | COc1ccccc1C(CCC(=O)O)CNC(=O)c1c(C)c(N2CCCCCC2)nc2ccc(Br)cc12 (single isomer, unassigned; (+)) [Example 239, (+)-5-({[2-(Azepan-1-yl)-6-bromo-3-methylquinolin-4-yl]carbonyl}amino)-4-(2-methoxyphenyl)pentanoic acid] |
| 27 nM | Cc1c(N2CCCCC2)nc2ccc(Br)cc2c1C(=O)NCC(CCC(=O)O)c1c(F)cccc1F (single isomer, unassigned; (+)) [Example 245, (+)-5-({[6-Bromo-3-methyl-2-(piperidin-1-yl)quinolin-4-yl]carbonyl}amino)-4-(2,6-difluorophenyl)pentanoic acid] |
| 72 nM | Cc1c(N2CCCC(F)(F)C2)nc2ccc(Br)cc2c1C(=O)NCC(CCC(=O)O)c1c(F)cccc1F (single isomer, unassigned; (+)) [Example 251, (+)-5-({[6-Bromo-2-(3,3-difluoropiperidin-1-yl)-3-methylquinolin-4-yl]carbonyl}amino)-4-(2,6-difluorophenyl)pentanoic acid] |
| 15 nM | Cc1c(N2CCCCC2)nc2ccc(Br)cc2c1C(=O)NCC(CCC(=O)O)c1cc(F)ccc1F (single isomer, unassigned; (+)) [Example 257, (+)-5-({[6-Bromo-3-methyl-2-(piperidin-1-yl)quinolin-4-yl]carbonyl}amino)-4-(2,5-difluorophenyl)pentanoic acid] |
| 55 nM | Cc1c(N2CCCC2)nc2ccc(Br)cc2c1C(=O)NCC(CCC(=O)O)c1cc(F)ccc1F (single isomer, unassigned; (+)) [Example 259, (+)-5-({[6-Bromo-3-methyl-2-(pyrrolidin-1-yl)quinolin-4-yl]carbonyl}amino)-4-(2,5-difluorophenyl)pentanoic acid] |
| 28 nM | Cc1c(N2CCCC(F)(F)C2)nc2ccc(Br)cc2c1C(=O)NCC(CCC(=O)O)c1cc(F)ccc1F (single isomer, unassigned; (+)) [Example 263, (+)-5-({[6-Bromo-2-(3,3-difluoropiperidin-1-yl)-3-methylquinolin-4-yl]carbonyl}amino)-4-(2,5-difluorophenyl)pentanoic acid] |
| 37 nM | Cc1c(N2CCCC(F)(F)C2)nc2ccc(Br)cc2c1C(=O)NCC(CCC(=O)O)c1c(Cl)cccc1Cl (single isomer, unassigned; (+)) [Example 266, (+)-5-({[6-Bromo-2-(3,3-difluoropiperidin-1-yl)-3-methylquinolin-4-yl]carbonyl}amino)-4-(2,6-dichlorophenyl)pentanoic acid] |
| 6.3 nM | [2H]C1([2H])N(c2nc3ccc(Br)cc3c(C(=O)NCC(CCC(=O)O)c3ccccc3OC(F)(F)F)c2C)C([2H])([2H])C([2H])([2H])C([2H])([2H])C1([2H])[2H] (single isomer, unassigned; (+)) [Example 271, (+)-5-[({6-Bromo-3-methyl-2-[(^2H10)piperidin-1-yl]quinolin-4-yl}carbonyl)amino]-4-[2-(trifluoromethoxy)phenyl]pentanoic acid] |
